We go through 1 compound from patent US20250345330A1 (Veradermics, Incorporated, priority 2024, published 2025).

Where two headings read alike, the source gives them in different places.

One series relates to Chinese hamster cells. The note with it: long exposure times; cited from earlier work.
The test system of series [1] is person with androgenetic alopecia. Nature of the series: Case studies: oral minoxidil in male patients with androgenetic alopecia (blood pressure, heart rate, hair growth). The note with it: 1.25 mg QID.
The subject of a further series is male adults with AGA. The note with it: 5 mg oral at bedtime; 24 weeks; cited from earlier work.
The conditions of series [2]: primarily conjugation with glucuronic acid; cited from earlier work.
The conditions of series [3]: cited from earlier work; for Cmax: tablets, healthy subjects.
For series [4] the following is noted: initially; chronic therapy; cited from earlier work.
For series [5], the system named is rats. The conditions noted are these: two-year, oral administration; cited from earlier work.
Series [6] relates to rats. The conditions noted are these: cited from earlier work.
For series [7] the following is noted: cited from earlier work.

The term Cmax denotes the highest concentration seen after dosing. As to `Nc1cc(N2CCCCC2)nc(N)[n+]1[O-]` [Minoxidil, minoxidil], the Cytogenetic assay result with Chinese hamster cells is listed as “equivocal result”. Besides, the Adverse events result in series [1] is on record as “No unwanted hair growth or other adverse events”. The Cardiovascular outcomes with male adults with AGA is on record as “No adverse cardiovascular outcomes were observed”. Further, the “Fraction of oral minoxidil metabolized” value in series [2] is reported as “About 90%”. For the same compound, in [3] (2.5 mg, 5 mg, or 10 mg oral, healthy volunteers), the “Dose dependence of PK” value was “dose-independent PK”. Further, the “Duration of plasma concentrations above 20 ng/mL” value in series [3] (5 mg dose level) is “around 1 h”; in series [3] (10 mg dose level) it was “around 2 h”. The highest concentration (Cmax) in [3] (2.5 mg) is reported as 16.8 ng/mL; in series [3] (5 mg), 37.2 ng/mL; in series [3] (10 mg), 74.7 ng/mL. For the same compound, in series [4], the “Temporary decrease in hematocrit, hemoglobin, and erythrocyte count (hemodilution)” value was “approximately 7%”. In addition, the Carcinogenicity findings entry in the series on rats [5] is listed as “no positive findings”. For the same compound, the Fetal resorption entry with rats [6] is listed as “not seen in rats”. Moreover, the “Radioactivity found in feces” value in series [7] (human, in vivo) is given as 3%. Besides, the “Radioactivity recovered from urine, in total” value in series [7] (human, in vivo) was 97%. In addition, the “Radiolabeled minoxidil and metabolites recovered from urine” value in [7] (within 24 h after oral administration) is “Over 80%”.
